What all share (assay): biochemical
Assay type in all cases: binding

The target of test [1] is T1, HLA-B*51:01 (Homo sapiens, UniProt P01889, A329T/A93T/A95T/C349S/D138N/D201E/D98Y/E187L/E204Q/E69T/G107R/I218V/K202T/L105A/L119W/N104I/Q94N/R106L/R155S/R180L/S101N/S121T/S35A/S48A/V306I/V36M/Y195H/Y91F).
T1 construct: made in house
The settings on record: synthetic peptide, purified MHC.

For test [2], the target named is T2, HLA-B*15:01 (Homo sapiens, UniProt P01889, A329T/A93T/A95T/C349S/D201E/D98Y/E187L/E204Q/E69M/E70A/K202T/N87E/Q94N/R155S/R180W/S121R/S35A/S48A/V306I/V36M/Y140S/Y91S).
T2 construct: made in house

Test [3] concerns the target T3, HLA-B*44:02 (Homo sapiens, UniProt P01889, A223V/A65T/A93T/A95T/D201E/D98Y/E176V/E187L/E204Q/E69K/G107R/H137Y/K202T/L105A/L119I/N104T/N87E/Q56L/Q94N/R106L/R155S/R180D/S101N/S121R/S35A/S48T/T118I/V36M/W191S/Y140D/Y91S).
T3 construct: made in house
The settings on record: synthetic peptide, purified MHC.

Test [4] addresses T4, HLA-B*18:01 (Homo sapiens, UniProt P01889, A329T/A93T/A95T/C349S/D201E/D54G/D98Y/E176V/E187T/E204Q/E69T/K202T/Q94N/R155S/R180L/S121R/V306I/Y140S/Y195H/Y33H/Y91S).
T4 construct: made in house

The target of test [5] is T5, HLA-A*01:01 (Homo sapiens, UniProt P04439, A114D/A174V/A182V/D101N/D185E/E176A/E190D/L180R/Q94H/R68K/S129P/T187R/V100A/V91M/W191G).
T5 construct: made in house
The settings on record: synthetic peptide, purified MHC.

For test [6], the target named is T6, HLA-B*44:03 (Homo sapiens, UniProt P01889, A223V/A65T/A93T/A95T/D201E/D98Y/E176V/E187L/E204Q/E69K/G107R/H137Y/K202T/L105A/L119I/N104T/N87E/Q56L/Q94N/R106L/R155S/R180L/S101N/S121R/S35A/S48T/T118I/V36M/W191S/Y140D/Y91S).
T6 construct: made in house
The settings on record: synthetic peptide, purified MHC.

The target of test [7] is HLA-A*26:01 (Homo sapiens, UniProt P04439, A114D/A173T/A270S/D101N/D185E/E277Q/E87N/F33Y/G231S/I121R/I218V/K168Q/L180W/L300P/L318F/P208A/P217A/Q86R/Q94H/R138Q/S129P/T187R/T323A/T345S/V100A/V358M).
In test [8] the target is T7, HLA-A*02:01 (Homo sapiens, UniProt P04439, D140Y/D185E/D98H/E176V/E277Q/G131W/G231S/I119V/I121R/I166T/I218V/L300P/L318F/N151K/N90K/P208A/P217A/Q86G/Q94H/R138H/R169H/T345S).
T7 construct: made in house

Where [9] appears, read: read-out: Binding in vitro (IC50, [nM]).

These results are taken from patent US12419948B2, “Immunogenic compositions and use thereof” (priority 2020, dated 2025).

Read-outs that look alike come from different tables or passages of the source. Where no end group is shown, it is not given here. Bounds are passed on as bounds.

For the sequence APRITFGGP [Peptide 29], the IC50 in test [1] was above 70 µM; in test [2], above 70 µM; in test [3] it was above 70 µM; in test [4], above 70000 nM; in test [5] it was above 70 µM; in test [6], above 70 µM. Further, the IC50 in test [7] is above 70 µM.

For the sequence DEFVVVTV, the half-maximal inhibitory concentration (IC50) in test [4] (setting [9]) is below 0.5 nM.

For GLITLSYHL, the half-inhibitory concentration (IC50) is below 0.5 nM in test [8] (HLA allele A0201, peptide detected in HEK293T, IC50 <500 nM indicates binding, read-out: Binding in vitro (IC50, [nM])) and below 0.5 nM in test [8] (read-out: IC50, binding to HLA-A*02:01).

With KNIDGYFKIY, the IC50 in test [4] (setting [9]) is above 70000 nM.
